EC50 data for ten compounds are collected here from patent US20110294778A1, “HEPATITIS C INHIBITOR COMPOUNDS” (priority 2009, published 2011).

The subject of assay [1] is HCV genotype 1b (Con-1) subgenomic replicon with NS3 resistance mutation D168V in Huh-7 cells. Briefly: HCV replicon RNA replication assay (NS3 protease variants), genotype 1b D168V. Type of assay: cell-based. The following applies: Hepatitis C virus.
The subject of assay [2] is HCV genotype 1a (strain H77) subgenomic replicon with NS3 resistance mutation R155K in Huh-7 cells. Briefly: HCV replicon RNA replication assay (NS3 protease variants), genotype 1a R155K. It is filed as cell-based. The following applies: Hepatitis C virus.
Where [3] appears, read: Huh-7, 72 h, read-out: D168V 1b EC50 (nM).
Where [4] appears, read: Huh-7, 72 h, read-out: R155K 1a EC50 (nM).
Where [5] appears, read: Huh-7, read-out: D168V 1b Ec50 (nM).
The mark [6] stands for this setting: Huh-7, read-out: R155K 1a Ec50 (nM).

SMILES strings stand for the structures. Where two headings read alike, the source gives them in different places.

With `COc1ccc2c(O[C@@H]3C[C@H]4C(=O)N[C@]5(C(=O)NS(=O)(=O)C6(C)CC6)C[C@H]5/C=C\CCCCC[C@H](NC(=O)N(C)C)C(=O)N4C3)cc(OC(C)C)nc2c1Br` [Compound 2016, (2R,6S,12Z,13aS,14aR,16aS)-2-{[8-bromo-7-methoxy-2-(propan-2-yloxy)quinolin-4-yl]oxy}-6-[(dimethylcarbamoyl)amino]-N-[(1-methylcyclopropyl)sulfonyl]-5,16-dioxo-1,2,3,6,7,8,9,10,11,13a,14,15,16,16a-tetradecahydrocyclopropa[e]pyrrolo[1,2-a][1,4]diazacyclopentadecine-14a(5H)-carboxamide], the values for the EC50 in assay [1] (setting [3]) and in assay [2] (setting [4]) were 1 nM and 2 nM, respectively.
For the compound `COc1ccc2c(O[C@@H]3C[C@H]4C(=O)N[C@]5(C(=O)NS(=O)(=O)C6(C)CC6)C[C@H]5/C=C\CCCCC[C@H](NC(=O)N5CCC5)C(=O)N4C3)cc(OCC(F)(F)F)nc2c1C` [Compound 2017, (2R,6S,12Z,13aS,14aR,16aS)-6-[(azetidin-1-ylcarbonyl)amino]-2-{[7-methoxy-8-methyl-2-(2,2,2-trifluoroethoxy)quinolin-4-yl]oxy}-N-[(1-methylcyclopropyl)sulfonyl]-5,16-dioxo-1,2,3,6,7,8,9,10,11,13a,14,15,16,16a-tetradecahydrocyclopropa[e]pyrrolo[1,2-a][1,4]diazacyclopentadecine-14a(5H)-carboxamide], the EC50 in assay [1] (setting [3]) worked out at 1.1 nM; in assay [2] (setting [4]), 6.3 nM.
For the compound `Cc1c(F)ccc2c(O[C@@H]3C[C@H]4C(=O)N[C@]5(C(=O)NS(=O)(=O)C6(C)CC6)C[C@H]5/C=C\CCCCC[C@H](NC(=O)N(C)C)C(=O)N4C3)cc(OC(C)C)nc12` [Compound 2018, (2R,6S,12Z,13aS,14aR,16aS)-6-[(dimethylcarbamoyl)amino]-2-{[7-fluoro-8-methyl-2-(propan-2-yloxy)quinolin-4-yl]oxy}-N-[(1-methylcyclopropyl)sulfonyl]-5,16-dioxo-1,2,3,6,7,8,9,10,11,13a,14,15,16,16a-tetradecahydrocyclopropa[e]pyrrolo[1,2-a][1,4]diazacyclopentadecine-14a(5H)-carboxamide], the figures for the EC50 in assay [1] (setting [3]) and in assay [2] (setting [4]) were 1.2 nM and 5.7 nM, respectively.
The matching figures for `CCOc1cc(O[C@@H]2C[C@H]3C(=O)N[C@]4(C(=O)NS(=O)(=O)C5(C)CC5)C[C@H]4/C=C\CCCCC[C@H](NC(=O)N(C)C)C(=O)N3C2)c2ccc(OC)c(Br)c2n1` [Compound 2019, (2R,6S,12Z,13aS,14aR,16aS)-2-[(8-bromo-2-ethoxy-7-methoxyquinolin-4-yl)oxy]-6-[(dimethylcarbamoyl)amino]-N-[(1-methylcyclopropyl)sulfonyl]-5,16-dioxo-1,2,3,6,7,8,9,10,11,13a,14,15,16,16a-tetradecahydrocyclopropa[e]pyrrolo[1,2-a][1,4]diazacyclopentadecine-14a(5H)-carboxamide]: 1.4 nM and 5.2 nM.
In the case of `COc1ccc2c(O[C@@H]3C[C@H]4C(=O)N[C@]5(C(=O)NS(=O)(=O)C6(C)CC6)C[C@H]5/C=C\CCCCC[C@H](NC(=O)N5CCCC5)C(=O)N4C3)cc(OC(C)C)nc2c1C` [Compound 2020, (2R,6S,12Z,13aS,14aR,16aS)-2-{[7-methoxy-8-methyl-2-(propan-2-yloxy)quinolin-4-yl]oxy}-N-[(1-methylcyclopropyl)sulfonyl]-5,16-dioxo-6-[(pyrrolidin-1-ylcarbonyl)amino]-1,2,3,6,7,8,9,10,11,13a,14,15,16,16a-tetradecahydrocyclopropa[e]pyrrolo[1,2-a][1,4]diazacyclopentadecine-14a(5H)-carboxamide], the EC50 amounted to 1.4 nM in assay [1] (setting [3]) and 4 nM in assay [2] (setting [4]).
For `COc1ccc2c(O[C@@H]3C[C@H]4C(=O)N[C@]5(C(=O)NS(=O)(=O)C6(C)CC6)C[C@H]5/C=C\CCCCC[C@H](NC(=O)N5CC(C)(C)C5)C(=O)N4C3)cc(OC(C)C)nc2c1C` [Compound 2021, (2R,6S,12Z,13aS,14aR,16aS)-6-{[(3,3-dimethylazetidin-1-yl)carbonyl]amino}-2-{[7-methoxy-8-methyl-2-(propan-2-yloxy)quinolin-4-yl]oxy}-N-[(1-methylcyclopropyl)sulfonyl]-5,16-dioxo-1,2,3,6,7,8,9,10,11,13a,14,15,16,16a-tetradecahydrocyclopropa[e]pyrrolo[1,2-a][1,4]diazacyclopentadecine-14a(5H)-carboxamide], the values for the EC50 in assay [1] (setting [3]) and in assay [2] (setting [4]) were 1.6 nM and 3 nM, respectively.
In the same order, the values of `Cc1c(O)ccc2c(O[C@@H]3C[C@H]4C(=O)N[C@]5(C(=O)NS(=O)(=O)C6(C)CC6)C[C@H]5/C=C\CCCCC[C@H](NC(=O)N(C)C)C(=O)N4C3)cc(OC(C)C)nc12` [Compound 2022, (2R,6S,12Z,13aS,14aR,16aS)-6-[(dimethylcarbamoyl)amino]-2-{[7-hydroxy-8-methyl-2-(propan-2-yloxy)quinolin-4-yl]oxy}-N-[(1-methylcyclopropyl)sulfonyl]-5,16-dioxo-1,2,3,6,7,8,9,10,11,13a,14,15,16,16a-tetradecahydrocyclopropa[e]pyrrolo[1,2-a][1,4]diazacyclopentadecine-14a(5H)-carboxamide] are 1.8 nM and 4.9 nM.
Turning to `CC[C@@H]1C[C@]1(NC(=O)[C@@H]1C[C@@H]2CN1C(=O)[C@H](C(C)(C)C)NC(=O)OCC(C)(C)CCCCc1cccc3c1CN(C3)C(=O)O2)C(=O)NS(=O)(=O)C1CC1` [reference compound], the EC50 came to 4400 nM in assay [1] (setting [5]) and 1200 nM in assay [2] (setting [6]).
The matching figures for `CC(C)(C)OC(=O)N[C@H]1CCCCC/C=C\C2C[C@@]2(C(=O)NS(=O)(=O)C2CC2)NC(=O)[C@@H]2C[C@@H](OC(=O)N3Cc4cccc(F)c4C3)CN2C1=O` (some centres unmarked) [reference compound]: 120 nM and 690 nM.
Turning to `COc1ccc2c(C[C@H]3CC4C(=O)N(C)CCCC/C=C\[C@H]5C[C@]5(C(=O)NS(=O)(=O)C5CC5)NC(=O)[C@@H]4C3)cc(-c3nc(C(C)C)cs3)nc2c1C` (some centres unmarked) [reference compound], the EC50 amounted to 4400 nM in assay [1] (setting [5]) and 300 nM in assay [2] (setting [6]).
